Legend:
NCI-H1373 = experiment: 3D cell proliferation assay, KRAS G12C mutant cell line NCI-H1373; assay type: cell-based; settings: Homo sapiens, 168 h, 7 day
Procedure: (§1) Growth inhibition assays was carried out using 10% FBS supplemented media. Cells were seeded at a desired concentration of 1000-6000 cells/well in a well plate with desired number of wells. Test compounds at a desired concentration range were added after 24 hours. Growth was assessed using the Cell Titer-Glo (CTG. Cell Signaling) for measuring reduction at 0 h (prior to the addition of the test compound) and 3 day (2D) or 7 day (3D) after the addition of test compound. Absorbance read on a BIO-RAD iMark Microplate or any equivalent microplate reader at a predetermined a wavelength for e.g. 450 nm. Data was be analysed and percent inhibition and/or IC50 for each test compound is calculated accordingly. Results: Data provide for a representative Cpd A across various cell lines including selectivity

NCI-H1792 = experiment: 3D cell proliferation assay, KRAS G12C mutant cell line NCI-H1792; assay type: cell-based; settings: Homo sapiens, 168 h, 7 day
Procedure: as §1

NCI-H23 = experiment: 3D cell proliferation assay, KRAS G12C mutant cell line NCI-H23; assay type: cell-based; settings: Homo sapiens, 168 h, 7 day
Procedure: as §1

Calu-1 = experiment: 3D cell proliferation assay, KRAS G12C mutant cell line Calu-1; assay type: cell-based; settings: Homo sapiens, 168 h, 7 day
Procedure: as §1

SW-837 = experiment: 3D cell proliferation assay, KRAS G12C mutant cell line SW-837; assay type: cell-based; settings: Homo sapiens, SW837, 168 h, 7 day
Procedure: as §1

SW1463 = experiment: 3D cell proliferation assay, KRAS G12C mutant cell line SW1463; assay type: cell-based; settings: Homo sapiens, 168 h, 7 day
Procedure: as §1

eCT26 = experiment: 3D cell proliferation assay, eCT26 (engineered for KRASG12C mutation); assay type: cell-based; settings: 168 h, 7 day
Procedure: as §1

CO-04-0070 = experiment: 3D cell proliferation assay, CO-04-0070 patient derived cell line; assay type: cell-based; settings: 168 h, CO-04-0070 (PDC), 7 day
Procedure: as §1

A549 = experiment: 2D cell proliferation assay, non-KRAS G12C mutant cell line A549; assay type: cell-based
Procedure: as §1

HCT116 = experiment: 2D cell proliferation assay, non-KRAS G12C mutant cell line HCT116; assay type: cell-based
Procedure: as §1

human KRAS G12C protein = human KRAS G12C protein (Homo sapiens, UniProt P01116, G12C); experiment: HTRF-based nucleotide exchange assay detecting GTP binding to K-Ras; assay type: biochemical; settings: KRAS G12C (aa 2-169), SOS1 (aa 564-1049), read-out: IC50, SOS1 mediated nucleotide exchange
Sequence of human KRAS G12C protein (P01116 2-169 isoform P01116-2 G12C): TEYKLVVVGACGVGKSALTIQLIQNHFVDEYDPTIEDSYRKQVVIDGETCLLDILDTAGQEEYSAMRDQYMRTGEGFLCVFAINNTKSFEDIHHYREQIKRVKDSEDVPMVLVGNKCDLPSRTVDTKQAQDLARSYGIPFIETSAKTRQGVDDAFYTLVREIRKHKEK
Procedure: Compounds (each 10 concentrations or any other concentration of choice at 3-fold or fold of choice for serial dilutions with a starting concentration of ˜300 um or 100 μM or 50 uM) were then delivered to the reaction wells using acoustic dispenser (Echo, Labcyte) and incubated with the Kras/aGST-Tb antibody for 1-hour at room temperature. After 1-hour incubation 5 μL of SOS1/GTP solution (SOS1—(corresponding to amino acid 564-1049) and GDP-DY-647P1 prepared using reaction buffer-20 mM Hepes, pH7.4, 150 mM Nacl, 5 mM MgCl2, 1 mM DTT, 0.05% BSA, 0.0025% NP40) was added to reaction wells to initiate the exchange reaction. HTRF based SOS1 mediated exchange of GDP to GTP was measured on a microplate reader PEHRAstar (BMG Labtech) at an excitation wavelength of 337 nm and emission wavelengths of 665 and 620 nm. No-SOS1 reaction or highest control compound concentration was used as blank and % inhibition was calculated and/or IC50 was determined using Sigmoidal dose response (variable slope) equation.

[1] = system: NCI-H358 Human Non-Small Cell Lung Cancer Xenograft; experiment: Anti-tumor effect in female Balb/c nude mice bearing NCI-H358 xenograft; assay type: in vivo
Procedure: NCI-H358 Xenograft was used to test representative compound of the invention where in NCI-H358 cells were inoculated in a mice model representing Lung Cancer with […] comprising of Control (Vehicle treated, GI) and two treatment cohorts/group namely Paclitaxel as standard (10 mg/kg Q3D, IV, G3) and test compound (100 mg/kg QD, Cpd A, G3) with each cohorts/group. Treatment was initiated when maximum tumor growth reached >200 mm3 and continued till the Vehicle are reached a maximum tumor volume of 2000 mm3.

C=CC(=O)N1CCN(c2nc(OC[C@@H]3CCCN3C)c(C#N)c3c2CCN(c2cccc4cccc(Cl)c24)C3)C[C@@H]1CC#N (single isomer, unassigned) [Ex 25]
IC50 (NCI-H1373): 100 to 200 nM
IC50 (NCI-H1792): 200 to 1000 nM
IC50 (NCI-H23): 100 to 200 nM
IC50 (Calu-1): 100 to 200 nM
IC50 (SW-837): 100 to 200 nM
IC50 (SW1463): < 100 nM
IC50 (eCT26): < 100 nM
IC50 (CO-04-0070): 100 to 200 nM
Fold Selectivity over KRAS G12C Mutant Cell Line (A549): ΩΩΩ (ΩΩΩ >600 fold)
Fold Selectivity over KRAS G12C Mutant Cell Line (HCT116): Ω (Ω = >100 fold)
IC50 (human KRAS G12C protein): < 10 nM
reduction in tumour volume as compared to Paclitaxel ([1]; 100 mg/kg QD vs Paclitaxel 10 mg/kg Q3DX3 Weeks, IV): statistically significant reduction
Tumor Growth inhibition (TGI) ([1]; 100 mg/kg QD, NCI-H358 xenograft, n=5): > 65%
reduction in tumor volume ([1]; 100 mg/kg QD, from day 3 onwards, P<0.01): statistically significant
effect on overall body weight ([1]; over the 21-day study period): No significant effect

— US20240300942A1, “SMALL MOLECULES FOR TREATEMENT OF CANCER” (VRise Therapeutics Inc., priority 2021, published 2024)
